Data as given in the METLIN SMRT retention time set (Domingo-Almenara et al. 2019).

Test: gradient 5% acetonitrile 3 min, to 50% in 2 min, to 85% in 15 min, held 3 min, 100 µL/min
Settings: column: Zorbax Extend-C18 2.1 x 50 mm; eluents: water / acetonitrile, 0.1% formic acid
Summary of the method: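 Data were gathered over 3 months by HPLC coupled to a quadrupole time-of-flight mass spectrometer, operated in positive and negative ionization mode. Mixtures of ~100 pure standards ran on a Zorbax Extend-C18 column (2.1 × 50 mm, 1.8 μm) at 100 μL/min, with water and acetonitrile each containing 0.1% formic acid and dead and dwell volumes of 40 μL and 900 μL. Retention time was read from adduct peaks picked by computer and checked manually.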

Row | Compound | RP-LC retention time
1 | CCN1CCN(C(=O)C2CCN(S(=O)(=O)c3c(C)nn(-c4ccc(F)cc4)c3C)CC2)CC1 | 641 s
2 | CC1CN(c2ccc(Cl)cc2)c2nc3c(c(=O)n(CC(=O)O)c(=O)n3C)n2C1 (centres undefined) | 790 s
3 | COc1ccc(Cl)cc1NC(=O)Cn1c(N2CCOCC2)nc(C)cc1=O | 772 s
4 | CCOc1ccc(-c2nc3ncccn3c2NCc2ccccc2OC)cc1OC | 739 s
5 | Cc1ccc(-c2noc(Cc3nnc(-c4ccc(C)cc4)o3)n2)cc1 | 1120 s
6 | Cc1cnc(C(=O)NC2C[C@H]3CC[C@@H](C2)N3C(=O)c2cc(C)n(C)n2)cn1 (some centres undefined) | 614 s
7 | O=C(Nc1c(F)cccc1F)N1CCc2nc(-c3ccc(F)cc3)ncc2C1 | 932 s
8 | Cc1nnc(-c2cc(C)n(CC(=O)Nc3ccc(Cl)cc3)c2C)o1 | 820 s
9 | O=C1CN(S(=O)(=O)c2ccc([N+](=O)[O-])cc2)c2ccccc2N1 | 738 s
10 | Cc1ccc(C)c(-n2ccn(Cc3nc(-c4ccc(F)c(Cl)c4)no3)c(=O)c2=O)c1 | 1010 s
11 | NC(=O)c1cc(N2CC2)c([N+](=O)[O-])cc1[N+](=O)[O-] | 650 s
12 | O=C(NCc1ccccc1F)c1sc2ncccc2c1-n1cccc1 | 961 s
13 | COc1ccccc1N1C(=O)c2cccc3cccc(c23)C1=O | 832 s
14 | COc1cc2nc(N3CCCN(C)CC3)nc(NC3CCN(Cc4ccccc4)CC3)c2cc1OC | 609 s
15 | CCN1CCN(C(=O)c2nc(N3CCSCC3)c3cnn(C)c3n2)CC1 | 604 s
16 | CC1CCCN(CC2CCN(S(=O)(=O)Cc3ccccc3F)CC2)C1 (centres undefined) | 650 s
17 | COc1ccc(C)cc1NC(=O)c1nc(C)oc1C | 1020 s
18 | O=C(c1ccc(F)c(F)c1)N1CCC(n2c(-c3ccco3)nc3cccnc32)C1 (centres undefined) | 776 s

Row | Compound | RP-LC retention time
19 | Cc1noc(C)c1CN1CCN(C(=O)Cc2ccccc2Cl)CC1 | 563 s
20 | Cc1ccc(NC(=O)N2CCC(CCNC(=O)C3(c4ccccc4)CC3)CC2)cc1F | 928 s
21 | COCc1cnc2c(c1SCc1cccc(Cl)c1)c(=O)n(C)c(=O)n2C | 1060 s
22 | O=C(CSc1nc(N2CCc3ccccc3C2)nc2ccccc12)NC1CCCCC1 | 728 s
23 | Cc1ccccc1Nc1c(-c2c(F)cccc2Cl)nc2ccccn12 | 739 s
24 | CCn1c(=O)c2c(nc3n2CC(C)CN3C2CCCCC2)n(C)c1=O (centres undefined) | 828 s
25 | O=C(NC1CC1)C1CCCN(c2ncnc3c2oc2ccccc23)C1 (centres undefined) | 632 s
26 | CC1CCN(S(=O)(=O)c2nn(C)cc2C(=O)O)CC1 | 707 s
27 | COc1cc(NC(=O)CN2C(=O)CCc3cc(Br)ccc32)cc(OC)c1OC | 820 s
28 | COc1ccc(-c2noc(CN3C(=O)COc4cc(C)ccc43)n2)cc1 | 1030 s
29 | O=C(NCc1ccccc1)C1CCN(C(=O)c2cc3ccsc3n2Cc2ccc(Cl)cc2)CC1 | 1060 s
30 | O=c1ccc(N2CCCN(S(=O)(=O)c3ccc(Cl)cc3)CC2)nn1-c1ccccc1 | 868 s
31 | O=C(Cn1ncc2c(N3CCN(c4ccccn4)CC3)ncnc21)Nc1ccc(F)cc1F | 615 s
32 | COC(=O)c1ccc(NC(=O)C(=O)NCC2CCN(Cc3cccs3)CC2)cc1 | 567 s
33 | Cc1cc(C)cc(NC(=O)NCCc2c(C)nn(C)c2C)c1 | 664 s
34 | Cc1cccc(-c2nnc(-c3cccc(S(=O)(=O)N(C)C)c3)o2)c1 | 982 s
35 | Cc1cccc(Cn2nc3ccc(S(=O)(=O)N4CCC(C)CC4)cn3c2=O)c1 | 1040 s
36 | Cc1noc([C@@H]2CC(F)(F)CN2C(=O)c2cocn2)n1 | 667 s

Now from value to molecule:

Row | RP-LC retention time | Compound
37 | 653 s | O=C(Cn1ccnc1-c1ccnc(N2CCSCC2)c1)NCc1ccc(F)cc1
38 | 610 s | CCOc1cc(N2CCN(C(=O)c3cc(Cl)ccc3OC)CC2)nc(C)n1
39 | 677 s | CCn1cc(CCN2CCN(S(=O)(=O)c3ccc(C)c(F)c3)CC2)c2cccnc21
40 | 1100 s | CCOc1ccccc1-c1noc(Cn2c(=O)n(Cc3ccc(F)cc3)c(=O)c3sccc32)n1
41 | 812 s | [O-][n+]1nc2ccccc2c2ccccc21
42 | 672 s | O=C(c1cc(-c2ccncc2)n[nH]1)N1CCC(C(=O)N2CCN(c3ccc(Cl)cc3)CC2)CC1
43 | 1120 s | O=S(=O)(c1ccc(Br)cc1)N1CCc2nc(-c3ccccc3)ncc2C1
44 | 833 s | COc1ccc(C(=O)N2CCN(c3nc(CN4CCOCC4)cs3)CC2)cc1
45 | 1080 s | Clc1ccccc1-c1nnc(-c2ccccc2Cl)o1
46 | 750 s | Cn1cc(S(=O)(=O)N2CCC(C(=O)Nc3ccc(F)cc3)CC2)cc1C(=O)N1CCCC1
47 | 658 s | O=C(Cn1c(=O)oc2ccccc21)N1C[C@H]2C[C@H](C1)[C@H]1CCCC(=O)N1C2
48 | 694 s | COc1cccc(C2=NC3(CCN(C(C)=O)CC3)NC(c3cc(Br)ccc3O)C2)c1 (centres undefined)
49 | 958 s | COc1ccccc1N1CCN(c2cc(SCC(=O)Nc3c(C)cccc3C)ncn2)CC1
50 | 656 s | CCNc1cc(N2CCCC(CCC(=O)NCc3ccccc3OC)C2)ncn1 (centres undefined)
51 | 615 s | CCCc1cc(N2CCN(c3ccccn3)CC2)n2nc3nc(C)cc(C)c3c2n1
52 | 787 s | COc1ccccc1N1CCN(CCN2C(=O)c3ccccc3C(C)(C)C2=O)CC1
53 | 669 s | Cc1ccc(NS(=O)(=O)c2cc3n(c2)CCCNC3=O)cc1F
54 | 1040 s | O=S(=O)(c1ccc(F)cc1)N1CCc2nc(-c3ccccc3)ncc2C1
55 | 1080 s | O=C(Nc1ccccc1-c1nc2ccccc2[nH]1)c1cc2ccccc2o1
56 | 943 s | Cc1csc(-c2ccc(N3CCN(C(=O)c4cc(Cl)ccc4F)CC3)nc2)n1
57 | 899 s | CC(C)c1ccc(NC(=O)C2CCCN(c3ncnc4c3nc3n4CCCCC3)C2)cc1 (centres undefined)
58 | 1130 s | COc1ccc2c(c1)Cc1sc(NC(=O)c3ccc(Br)cc3)nc1-2
59 | 787 s | O=C(CSc1nnc2c3cc(-c4ccc(F)cc4)nn3ccn12)NCc1ccco1
60 | 643 s | COCCCNC(=O)N1CCN(c2nnc(C)c3c(C)n(-c4ccc(C)cc4)nc23)CC1
61 | 732 s | COc1ccc(CNC(=O)c2ccc3c(c2)nc2n3CCN(c3ccccc3)C2=O)cc1
62 | 650 s | CCCNC(=O)C1CCN(Cc2cn(C)c3ccc(Cl)cc23)CC1
63 | 918 s | Cc1ccc(C(=O)Nc2nc(-c3ccc4c(c3)NC(=O)C(C)O4)cs2)cc1 (centres undefined)

Row | RP-LC retention time | Compound
64 | 988 s | CN1C(=O)COc2ccc(-c3csc(NC(=O)C4CCCCC4)n3)cc21
65 | 791 s | Cc1cc(C(=O)N2CCCn3nc(-c4cccs4)cc3C2)no1
66 | 624 s | Nc1c2c(nc3c1CCC3)CCCC2
67 | 837 s | O=C(NC1CCN(c2nnc3ccc(Cl)cn23)CC1)c1ccc(C(F)(F)F)s1
68 | 804 s | O=C1CC(C(=O)N2CCc3ccccc3C2)CN1CCc1c[nH]c2ccc(F)cc12 (centres undefined)
69 | 726 s | CCN(CC)c1ncc2c(n1)CCC(C(=O)Nc1ccc(OC)c(F)c1)C2 (centres undefined)
70 | 625 s | CCCS(=O)(=O)N1CC(c2nnc(-c3ccncc3)o2)C2(CCOCC2)C1 (centres undefined)
71 | 590 s | COc1cccc(C2CC(c3ccc(F)cc3)=NC3(CCN(C)CC3)N2)c1O (centres undefined)
72 | 698 s | CCc1nnc2c(=O)n(CC(=O)NCc3ccc(F)cc3)c3cccnc3n12
73 | 1100 s | O=C(Nc1cccc([N+](=O)[O-])c1)c1cc2ccccc2cc1O
74 | 643 s | CCn1c(=O)n(CC)c2cc(N3CCCC3)c(NC(=O)NCc3ccc(OC)cc3)cc21
75 | 953 s | CC(=O)N1CCC2(CC1)Oc1ccccc1C1CC(c3ccccc3)=NN12 (centres undefined)
76 | 1020 s | O=C(C1=NN(CCc2ccccc2)c2ccccc2S1(=O)=O)N1CCCCCC1
77 | 707 s | CCOc1cc(=O)n2c(c1C(=O)NCc1ccc3c(c1)OCO3)CCCC2
78 | 763 s | CC(=O)Nc1onc(C)c1-c1ccc(C)c(S(=O)(=O)N2CCN(c3ncccn3)CC2)c1
79 | 579 s | O=C(O)C1CN(C(=O)c2ccc3c(c2)OCO3)C1
80 | 718 s | Cc1nc2cccnc2n1CC1CCCN(S(=O)(=O)Cc2ccc(Cl)cc2)C1 (centres undefined)
81 | 637 s | c1cc(-n2nnc3cnccc32)ccn1
82 | 660 s | O=C(COc1ccc(F)cc1F)Nc1cccc(-c2ccc(N3CCOCC3)nn2)c1
83 | 703 s | Cc1noc([C@@H]2CC(F)(F)CN2C(=O)c2ccoc2)n1
84 | 862 s | O=C(Nc1cccc2nsnc12)C1CCN(S(=O)(=O)N2CCCC2)CC1
85 | 927 s | O=C(COc1ccc(Cl)cc1Cl)NCC(=O)N1CCOC(c2ccccc2)C1 (centres undefined)
86 | 661 s | O=C1c2ccccc2C(=O)c2[nH]cnc21
87 | 707 s | COc1ccc(-c2c(C)noc2NC(C)=O)cc1S(=O)(=O)Nc1ccc2c(c1)OCCO2
88 | 644 s | CC(=O)Nc1cc(NC(C)=O)ncn1
89 | 621 s | COCCN1C(=O)c2ccccc2C(C(=O)N2CCN(c3ccccn3)CC2)C1c1cccs1 (centres undefined)
